Source: patent US6737383B1, “Herbicidal oxadiazolidines” (priority 1999, dated 2004)

What was measured:
bedstraw = test: Test B pre/postemergence bedstraw; type: in vivo, Galium aparine; conditions: Postemergence, Rate 250 g/ha; scale of 0 to 10, 0 is no effect, 10 is complete control
Outline: (§1)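 Response is a visual 0-to-10 score relative to untreated plants, where 0 means no effect and 10 means complete control, taken twelve to sixteen days after application. Treatments went onto soil at planting and onto foliage of 1- to 4-leaf plants, using a surfactant-containing non-phytotoxic solvent.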

blackgrass = test: Test B pre/postemergence blackgrass; type: in vivo, Alopecurus myosuroides
Outline: as §1

surinam grass = test: Test B pre/postemergence surinam grass; type: in vivo, Brachiaria decumbens
Outline: as §1

cocklebur = test: Test B pre/postemergence cocklebur; type: in vivo, Xanthium strumarium
Outline: as §1

corn = test: Test B pre/postemergence corn; type: in vivo, Zea mays
Outline: as §1

giant foxtail = test: Test B pre/postemergence giant foxtail; type: in vivo, Setaria faberii
Outline: as §1

morningglory = test: Test B pre/postemergence morningglory; type: in vivo, Ipomoea hederacea
Outline: as §1

pigweed = test: Test B pre/postemergence pigweed; type: in vivo, Amaranthus retroflexus
Outline: as §1

rape = test: Test B pre/postemergence rape; type: in vivo, Brassica napus
Outline: as §1

soybean = test: Test B pre/postemergence soybean; type: in vivo, Glycine max
Outline: as §1

sugar beet = test: Test B pre/postemergence sugar beet; type: in vivo, Beta vulgaris
Outline: as §1

velvetleaf = test: Test B pre/postemergence velvetleaf; type: in vivo, Abutilon theophrasti
Outline: as §1

purple nutsedge = test: Test B pre/postemergence purple nutsedge; type: in vivo, Cyperus rotundus
Outline: as §1

smallflower flatsedge = test: Test B flood test smallflower flatsedge; type: in vivo, Cyperus difformis
Outline: (§2)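 Each value is a visual injury score relative to controls, with 10 meaning complete control and 0 no effect. Evaluation took place twelve to sixteen days after the 2-leaf-stage plants were treated and kept in the greenhouse.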

duck salad = test: Test B flood test duck salad; type: in vivo, Heteranthera limosa
Outline: as §2

bamyardgrass = test: Test B flood test barnyardgrass; type: in vivo, Echinochloa crus-galli
Outline: as §2

[1] = Postemergence, Rate 62 g/ha, scale 0 to 10, 0 is no effect, 10 is complete control
[2] = Postemergence, Rate 125 g/ha, scale of 0 to 10 where 0 is no effect and 10 is complete control
[3] = Postemergence, Rate 250 g/ha, scale of 0 to 10, 0 is no effect, 10 is complete control
[4] = Preemergence, Rate 62 g/ha, scale of 0 to 10 where 0 is no effect and 10 is complete control
[5] = Preemergence, Rate 125 g/ha, scale of 0 to 10 where 0 is no effect and 10 is complete control
[6] = Preemergence, Rate 250 g/ha, scale 0 to 10 (0 no effect, 10 complete control)
[7] = Preemergence, Rate 500 g/ha, scale of 0 to 10 where 0 is no effect and 10 is complete control
[8] = Rate 500 g/ha, Postemergence, scale 0 to 10, 0 is no effect, 10 is complete control
[9] = Rate 62 g/ha, flood test species, Pre-emergence, visual evaluation after twelve to sixteen days
[10] = Rate 125 g/ha, under heading Pre-emergence, flood test species, visual evaluation after twelve to sixteen days
[11] = Rate 250 g/ha, Pre-emergence (flood test species), scale 0 to 10, 0 is no effect, 10 is complete control
[12] = Rate 500 g/ha, Pre-emergence section of Table B, 0 to 10 scale (0 no effect, 10 complete control)

C#CC(C)n1c(=O)on(C(=O)N(c2ccc(Cl)cc2)C(C)C)c1=O (racemic) [Compound 658]
8: Plant response rating, B. signalgrass (surinam grass; [6]) | Plant response rating, B. signalgrass (surinam grass; [7]) | Plant response rating, Rape (rape; [7])
2: Cocklebur plant response rating (cocklebur; [3]) | Plant response rating, Corn (corn; [6]) | Plant response rating, Corn (corn; [7]) | Redroot pigweed plant response rating (pigweed; [4]) | Rape plant response rating (rape; [4]) | Plant response rating, Soybean (soybean; [1]) | Sugarbeets plant response rating (sugar beet; [8]) | Plant response rating, Nutsedge (purple nutsedge; [7]) | Nutsedge plant response rating (purple nutsedge; [8])
0: Bedstraw plant response rating (bedstraw) | Plant response rating, Blackgrass (blackgrass; [1]) | Plant response rating, B. signalgrass (surinam grass; [1]) | Plant response rating, B. signalgrass (surinam grass; [2]) | B. signalgrass plant response rating (surinam grass; [3]) | B. signalgrass plant response rating (surinam grass; [4]) | B. signalgrass plant response rating (surinam grass; [5]) | B. signalgrass plant response rating (surinam grass; [8]) | Plant response rating, Cocklebur (cocklebur; [1]) | Cocklebur plant response rating (cocklebur; [2]) | Cocklebur plant response rating (cocklebur; [4]) | Cocklebur plant response rating (cocklebur; [5]) | Plant response rating, Cocklebur (cocklebur; [6]) | Plant response rating, Cocklebur (cocklebur; [7]) | Plant response rating, Corn (corn; [1]) | Corn plant response rating (corn; [2]) | Corn plant response rating (corn; [3]) | Corn plant response rating (corn; [4]) | Corn plant response rating (corn; [5]) | Corn plant response rating (corn; [8]) | Plant response rating, Giant foxtail (giant foxtail; [1]) | Morningglory plant response rating (morningglory; [4]) | Morningglory plant response rating (morningglory; [5]) | Plant response rating, Morningglory (morningglory; [6]) | Plant response rating, Morningglory (morningglory; [7]) | Plant response rating, Rape (rape; [1]) | Rape plant response rating (rape; [2]) | Soybean plant response rating (soybean; [4]) | Soybean plant response rating (soybean; [5]) | Plant response rating, Soybean (soybean; [6]) | Plant response rating, Sugarbeets (sugar beet; [1]) | Sugarbeets plant response rating (sugar beet; [2]) | Plant response rating, Velvetleaf (velvetleaf; [1]) | Velvetleaf plant response rating (velvetleaf; [2]) | Velvetleaf plant response rating (velvetleaf; [4]) | Velvetleaf plant response rating (velvetleaf; [5]) | Plant response rating, Nutsedge (purple nutsedge; [1]) | Nutsedge plant response rating (purple nutsedge; [2]) | Nutsedge plant response rating (purple nutsedge; [4]) | Nutsedge plant response rating (purple nutsedge; [5]) | Plant response rating, Nutsedge (purple nutsedge; [6]) | Plant response rating, S. Flatsedge (0 to 10 scale, 0 is no effect, 10 is complete control) (smallflower flatsedge; [9]) | S. Flatsedge plant response rating (0 to 10 scale, 0 is no effect, 10 is complete control) (smallflower flatsedge; [10]) | S. Flatsedge plant response rating (smallflower flatsedge; [11]) | S. Flatsedge plant response rating (smallflower flatsedge; [12]) | Plant response rating, Ducksalad (0 to 10 scale, 0 is no effect, 10 is complete control) (duck salad; [9]) | Ducksalad plant response rating (0 to 10 scale, 0 is no effect, 10 is complete control) (duck salad; [10]) | Ducksalad plant response rating (duck salad; [11]) | Ducksalad plant response rating (duck salad; [12]) | Plant response rating, Barnyardgrass (0 to 10 scale, 0 is no effect, 10 is complete control) (bamyardgrass; [9]) | Barnyardgrass plant response rating (0 to 10 scale, 0 is no effect, 10 is complete control) (bamyardgrass; [10]) | Barnyardgrass plant response rating (bamyardgrass; [11]) | Barnyardgrass plant response rating (bamyardgrass; [12])
3: Blackgrass plant response rating (blackgrass; [2]) | Blackgrass plant response rating (blackgrass; [4]) | Giant foxtail plant response rating (giant foxtail; [2]) | Rape plant response rating (rape; [8]) | Plant response rating, Soybean (soybean; [7]) | Sugarbeets plant response rating (sugar beet; [4]) | Plant response rating, Velvetleaf (velvetleaf; [6])
4: Soybean plant response rating (soybean; [2]) | Soybean plant response rating (soybean; [8])
9: Giant foxtail plant response rating (giant foxtail; [4]) | Giant foxtail plant response rating (giant foxtail; [5]) | Plant response rating, Giant foxtail (giant foxtail; [6]) | Redroot pigweed plant response rating (pigweed; [5]) | Plant response rating, Redroot pigweed (pigweed; [6])
5: Cocklebur plant response rating (cocklebur; [8]) | Rape plant response rating (rape; [5]) | Plant response rating, Rape (rape; [6]) | Plant response rating, Velvetleaf (velvetleaf; [7])
7: Blackgrass plant response rating (blackgrass; [5]) | Plant response rating, Blackgrass (blackgrass; [6]) | Plant response rating, Blackgrass (blackgrass; [7]) | Blackgrass plant response rating (blackgrass; [8]) | Giant foxtail plant response rating (giant foxtail; [3]) | Plant response rating, Morningglory (morningglory; [1]) | Morningglory plant response rating (morningglory; [2]) | Morningglory plant response rating (morningglory; [3]) | Redroot pigweed plant response rating (pigweed; [8]) | Sugarbeets plant response rating (sugar beet; [5]) | Plant response rating, Sugarbeets (sugar beet; [7])
10: Plant response rating, Giant foxtail (giant foxtail; [7]) | Morningglory plant response rating (morningglory; [8]) | Plant response rating, Redroot pigweed (pigweed; [7])
6: Blackgrass plant response rating (blackgrass; [3]) | Giant foxtail plant response rating (giant foxtail; [8]) | Plant response rating, Redroot pigweed (pigweed; [1]) | Redroot pigweed plant response rating (pigweed; [2]) | Plant response rating, Sugarbeets (sugar beet; [6]) | Velvetleaf plant response rating (velvetleaf; [8])
